{"source": "PubChem BioAssay AID2060486", "about": "(Molecular Pharmacology Branch, DTP, NCI, 2025)", "system": "IGROV1 complex spheroids (HUVEC, MSC), viability % test/control", "assay": "Anticancer human tumor IGROV1 cell line growth inhibition [GQUAD];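 on all read-outs here: spheroids exposed to compounds for 7 days before readout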;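 on viability, T/C: 100% = DMSO vehicle control viability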", "conditions": "for IC50: curve of first compound; for viability, T/C: stronger effect = lower value", "how_it_was_run": "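Multi-cell-type spheroids of tumor cells with HUVEC and mesenchymal stem cells, treated with drug combinations. Concentrations descend in half-log steps from near clinical Cmax, or from 10 microM where Cmax is unknown; viability read-out.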", "key": {"[1]": {"conditions": "second compound 0.0316 µM, first compound 0.0316 µM"}, "[2]": {"conditions": "second compound 0.0316 µM, first compound 0.316 µM"}, "[3]": {"conditions": "second compound 0.1 µM, first compound 0.0316 µM"}, "[4]": {"conditions": "second compound 0.1 µM, first compound 0.316 µM"}, "[5]": {"conditions": "second compound 0.316 µM, first compound 0.0316 µM"}, "[6]": {"conditions": "second compound 0.316 µM, first compound 0.316 µM"}, "[7]": {"conditions": "second compound 1 µM, first compound 0.0316 µM"}, "[8]": {"conditions": "second compound 1 µM, first compound 0.316 µM"}, "[9]": {"conditions": "second compound 3.16 µM, first compound 0.0316 µM"}, "[10]": {"conditions": "second compound 3.16 µM, first compound 0.316 µM"}, "[11]": {"conditions": "second compound 10 µM, first compound 0.0316 µM"}, "[12]": {"conditions": "second compound 10 µM, first compound 0.316 µM"}}, "data": [{"molecule": "Cc1[nH]c2ccccc2c1CCNCc1ccc(/C=C/C(=O)NO)cc1", "note": "+ CN(C)c1ccc(Nc2c3ccc(NC(=O)CCN4CCCC4)cc3nc3cc(NC(=O)CCN4CCCC4)ccc23)cc1", "values": [{"measurement": "IC50", "setting": "second compound 0.0316 µM", "result": 19.1, "unit": "nM"}, {"measurement": "IC50", "setting": "second compound 0.1 µM", "result": 10.2, "unit": "nM"}, {"measurement": "IC50", "setting": "second compound 0.316 µM", "result": 22.7, "unit": "nM"}, {"measurement": "IC50", "setting": "second compound 1 µM", "result": 14.7, "unit": "nM"}, {"measurement": "IC50", "setting": "second compound 3.16 µM", "result": 12.4, "unit": "nM"}, {"measurement": "IC50", "setting": "second compound 10 µM", "result": 11.7, "unit": "nM"}, {"measurement": "viability, T/C", "setting": "second compound 0.0316 µM, first compound 0.000999 µM", "result": 104, "unit": "%"}, {"measurement": "viability, T/C", "setting": "second compound 0.0316 µM, first compound 0.00316 µM", "result": 84.2, "unit": "%"}, {"measurement": "viability, T/C", "setting": "second compound 0.0316 µM, first compound 0.00999 µM", "result": 79.3, "unit": "%"}, {"measurement": "viability, T/C", "setting": "[1]", "result": 28.5, "unit": "%"}, {"measurement": "viability, T/C", "setting": "second compound 0.0316 µM, first compound 0.0999 µM", "result": 4.27, "unit": "%"}, {"measurement": "viability, T/C", "setting": "[2]", "result": 0.32, "unit": "%"}, {"measurement": "viability, T/C", "setting": "second compound 0.1 µM, first compound 0.000999 µM", "result": 84.3, "unit": "%"}, {"measurement": "viability, T/C", "setting": "second compound 0.1 µM, first compound 0.00316 µM", "result": 67.5, "unit": "%"}, {"measurement": "viability, T/C", "setting": "second compound 0.1 µM, first compound 0.00999 µM", "result": 51.4, "unit": "%"}, {"measurement": "viability, T/C", "setting": "[3]", "result": 30.1, "unit": "%"}, {"measurement": "viability, T/C", "setting": "second compound 0.1 µM, first compound 0.0999 µM", "result": 3.89, "unit": "%"}, {"measurement": "viability, T/C", "setting": "[4]", "result": 0.33, "unit": "%"}, {"measurement": "viability, T/C", "setting": "second compound 0.316 µM, first compound 0.000999 µM", "result": 77.1, "unit": "%"}, {"measurement": "viability, T/C", "setting": "second compound 0.316 µM, first compound 0.00316 µM", "result": 77.7, "unit": "%"}, {"measurement": "viability, T/C", "setting": "second compound 0.316 µM, first compound 0.00999 µM", "result": 70.1, "unit": "%"}, {"measurement": "viability, T/C", "setting": "[5]", "result": 42.1, "unit": "%"}, {"measurement": "viability, T/C", "setting": "second compound 0.316 µM, first compound 0.0999 µM", "result": 4.59, "unit": "%"}, {"measurement": "viability, T/C", "setting": "[6]", "result": 0.38, "unit": "%"}, {"measurement": "viability, T/C", "setting": "second compound 1 µM, first compound 0.000999 µM", "result": 65.2, "unit": "%"}, {"measurement": "viability, T/C", "setting": "second compound 1 µM, first compound 0.00316 µM", "result": 89, "unit": "%"}, {"measurement": "viability, T/C", "setting": "second compound 1 µM, first compound 0.00999 µM", "result": 54.2, "unit": "%"}, {"measurement": "viability, T/C", "setting": "[7]", "result": 31.2, "unit": "%"}, {"measurement": "viability, T/C", "setting": "second compound 1 µM, first compound 0.0999 µM", "result": 5.62, "unit": "%"}, {"measurement": "viability, T/C", "setting": "[8]", "result": 0.2, "unit": "%"}, {"measurement": "viability, T/C", "setting": "second compound 3.16 µM, first compound 0.000999 µM", "result": 64, "unit": "%"}, {"measurement": "viability, T/C", "setting": "second compound 3.16 µM, first compound 0.00316 µM", "result": 82.1, "unit": "%"}, {"measurement": "viability, T/C", "setting": "second compound 3.16 µM, first compound 0.00999 µM", "result": 48.8, "unit": "%"}, {"measurement": "viability, T/C", "setting": "[9]", "result": 29.6, "unit": "%"}, {"measurement": "viability, T/C", "setting": "second compound 3.16 µM, first compound 0.0999 µM", "result": 4.53, "unit": "%"}, {"measurement": "viability, T/C", "setting": "[10]", "result": 0.37, "unit": "%"}, {"measurement": "viability, T/C", "setting": "second compound 10 µM, first compound 0.000999 µM", "result": 53, "unit": "%"}, {"measurement": "viability, T/C", "setting": "second compound 10 µM, first compound 0.00316 µM", "result": 55.4, "unit": "%"}, {"measurement": "viability, T/C", "setting": "second compound 10 µM, first compound 0.00999 µM", "result": 56.6, "unit": "%"}, {"measurement": "viability, T/C", "setting": "[11]", "result": 18.1, "unit": "%"}, {"measurement": "viability, T/C", "setting": "second compound 10 µM, first compound 0.0999 µM", "result": 4.24, "unit": "%"}, {"measurement": "viability, T/C", "setting": "[12]", "result": 0.47, "unit": "%"}]}, {"molecule": "O=C(NO)c1cnc(N2CCN(S(=O)(=O)c3ccc4ccccc4c3)CC2)nc1", "note": "+ CN(C)c1ccc(Nc2c3ccc(NC(=O)CCN4CCCC4)cc3nc3cc(NC(=O)CCN4CCCC4)ccc23)cc1", "values": [{"measurement": "IC50", "setting": "second compound 0.0316 µM", "result": 60.1, "unit": "nM"}, {"measurement": "IC50", "setting": "second compound 0.1 µM", "result": 63.6, "unit": "nM"}, {"measurement": "IC50", "setting": "second compound 0.316 µM", "result": 55.6, "unit": "nM"}, {"measurement": "IC50", "setting": "second compound 1 µM", "result": 41.4, "unit": "nM"}, {"measurement": "IC50", "setting": "second compound 3.16 µM", "result": 47.2, "unit": "nM"}, {"measurement": "IC50", "setting": "second compound 10 µM", "result": "< 31.6", "unit": "nM"}, {"measurement": "viability, T/C", "setting": "[1]", "result": 69.9, "unit": "%"}, {"measurement": "viability, T/C", "setting": "second compound 0.0316 µM, first compound 0.1 µM", "result": 34.2, "unit": "%"}, {"measurement": "viability, T/C", "setting": "[2]", "result": 4.85, "unit": "%"}, {"measurement": "viability, T/C", "setting": "second compound 0.0316 µM, first compound 1 µM", "result": 0.26, "unit": "%"}, {"measurement": "viability, T/C", "setting": "second compound 0.0316 µM, first compound 3.16 µM", "result": 0.09, "unit": "%"}, {"measurement": "viability, T/C", "setting": "second compound 0.0316 µM, first compound 10 µM", "result": 0.1, "unit": "%"}, {"measurement": "viability, T/C", "setting": "[3]", "result": 74.8, "unit": "%"}, {"measurement": "viability, T/C", "setting": "second compound 0.1 µM, first compound 0.1 µM", "result": 33.9, "unit": "%"}, {"measurement": "viability, T/C", "setting": "[4]", "result": 4.46, "unit": "%"}, {"measurement": "viability, T/C", "setting": "second compound 0.1 µM, first compound 1 µM", "result": 0.26, "unit": "%"}, {"measurement": "viability, T/C", "setting": "second compound 0.1 µM, first compound 3.16 µM", "result": 0.07, "unit": "%"}, {"measurement": "viability, T/C", "setting": "second compound 0.1 µM, first compound 10 µM", "result": 0.09, "unit": "%"}, {"measurement": "viability, T/C", "setting": "[5]", "result": 66.6, "unit": "%"}, {"measurement": "viability, T/C", "setting": "second compound 0.316 µM, first compound 0.1 µM", "result": 32.6, "unit": "%"}, {"measurement": "viability, T/C", "setting": "[6]", "result": 5.36, "unit": "%"}, {"measurement": "viability, T/C", "setting": "second compound 0.316 µM, first compound 1 µM", "result": 0.25, "unit": "%"}, {"measurement": "viability, T/C", "setting": "second compound 0.316 µM, first compound 3.16 µM", "result": 0.06, "unit": "%"}, {"measurement": "viability, T/C", "setting": "second compound 0.316 µM, first compound 10 µM", "result": 0.08, "unit": "%"}, {"measurement": "viability, T/C", "setting": "[7]", "result": 58, "unit": "%"}, {"measurement": "viability, T/C", "setting": "second compound 1 µM, first compound 0.1 µM", "result": 23.6, "unit": "%"}, {"measurement": "viability, T/C", "setting": "[8]", "result": 3.31, "unit": "%"}, {"measurement": "viability, T/C", "setting": "second compound 1 µM, first compound 1 µM", "result": 0.23, "unit": "%"}, {"measurement": "viability, T/C", "setting": "second compound 1 µM, first compound 3.16 µM", "result": 0.06, "unit": "%"}, {"measurement": "viability, T/C", "setting": "second compound 1 µM, first compound 10 µM", "result": 0.08, "unit": "%"}, {"measurement": "viability, T/C", "setting": "[9]", "result": 64.3, "unit": "%"}, {"measurement": "viability, T/C", "setting": "second compound 3.16 µM, first compound 0.1 µM", "result": 23.4, "unit": "%"}, {"measurement": "viability, T/C", "setting": "[10]", "result": 3.69, "unit": "%"}, {"measurement": "viability, T/C", "setting": "second compound 3.16 µM, first compound 1 µM", "result": 0.27, "unit": "%"}, {"measurement": "viability, T/C", "setting": "second compound 3.16 µM, first compound 3.16 µM", "result": 0.07, "unit": "%"}, {"measurement": "viability, T/C", "setting": "second compound 3.16 µM, first compound 10 µM", "result": 0.08, "unit": "%"}, {"measurement": "viability, T/C", "setting": "[11]", "result": 45.4, "unit": "%"}, {"measurement": "viability, T/C", "setting": "second compound 10 µM, first compound 0.1 µM", "result": 14.4, "unit": "%"}, {"measurement": "viability, T/C", "setting": "[12]", "result": 3.73, "unit": "%"}, {"measurement": "viability, T/C", "setting": "second compound 10 µM, first compound 1 µM", "result": 0.21, "unit": "%"}, {"measurement": "viability, T/C", "setting": "second compound 10 µM, first compound 3.16 µM", "result": 0.12, "unit": "%"}, {"measurement": "viability, T/C", "setting": "second compound 10 µM, first compound 10 µM", "result": 0.11, "unit": "%"}]}]}
